The source of these data is patent publication US4664850A, “Novel radioactive steroids” (Roussel Uclaf, priority 1983, dated 1987).

Data set [1] has as its system glucocorticoid receptors. The following applies: versus other steroid receptors, particularly mineralocorticoid; TEUTSCH et al. 1981; cited from earlier work.
Data set [2] concerns the target T1, glucocorticoid receptors of cytosol of rat thymus (Rattus norvegicus, UniProt P06536).
T1 construct: carbon-dextran adsorption
T1 sequence (P06536 1-795): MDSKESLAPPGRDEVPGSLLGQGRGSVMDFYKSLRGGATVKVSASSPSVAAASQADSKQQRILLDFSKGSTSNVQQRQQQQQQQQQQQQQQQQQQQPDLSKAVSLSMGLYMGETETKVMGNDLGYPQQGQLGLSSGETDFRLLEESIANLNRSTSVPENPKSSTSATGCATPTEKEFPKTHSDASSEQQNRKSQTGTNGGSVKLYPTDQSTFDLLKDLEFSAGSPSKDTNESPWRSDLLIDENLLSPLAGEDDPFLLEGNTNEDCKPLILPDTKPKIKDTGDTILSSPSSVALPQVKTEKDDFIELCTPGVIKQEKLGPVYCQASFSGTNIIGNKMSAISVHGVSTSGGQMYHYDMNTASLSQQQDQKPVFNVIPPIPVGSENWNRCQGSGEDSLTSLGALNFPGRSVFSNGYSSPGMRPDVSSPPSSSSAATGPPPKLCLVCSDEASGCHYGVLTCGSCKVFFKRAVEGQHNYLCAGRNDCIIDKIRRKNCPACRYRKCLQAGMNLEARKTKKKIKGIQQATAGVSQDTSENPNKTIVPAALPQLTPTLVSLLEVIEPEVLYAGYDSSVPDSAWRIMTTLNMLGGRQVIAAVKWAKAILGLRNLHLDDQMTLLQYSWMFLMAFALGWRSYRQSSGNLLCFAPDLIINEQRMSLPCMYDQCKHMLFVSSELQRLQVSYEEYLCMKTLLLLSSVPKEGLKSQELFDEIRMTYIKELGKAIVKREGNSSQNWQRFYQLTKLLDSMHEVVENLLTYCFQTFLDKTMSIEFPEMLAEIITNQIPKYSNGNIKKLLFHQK
As to the kind of experiment: Fixation on glucocorticoid receptors of rat thymus cytosol (carbon-dextran adsorption). The data set is classed as binding. As to the method:
(§1) (d) At 0° C. and 15° C., product A forms complexes with thymus glucocorticoid receptors which are stable for at least 24 hours. […] For this reason, it permits the total number of glucocorticoid fixation sites to be determined in different physiological conditions.

The test system of data set [3] is glucocorticoid receptors of the hippocampus. The experiment in a line: Dissociation from glucocorticoid receptors of hippocampus cytosol. The data set is classed as binding.
The subject of data set [4] is glucocorticoid receptors. The experiment in a line: Selectivity of fixation on steroid receptors. The data set is classed as binding. The following applies: compared with similar non-radioactive products. An excerpt:
651-665 (1981)]. Otherwise, other natural or synthetic corticoids which are used for this type of experiment, simultaneously fix on other steroid receptors and particularly on mineralocorticoid receptors. However, during such experiments with non-radioactive 6-methyl-17α-(prop-1-ynyl)-Δ^1,4,6 -androstatriene-11β,17β-diol-3-one, particularly when the tissues […] examined included simultaneously glucocorticoid and mineralocorticoid receptors, it was often necessary to adopt a succession of long and complicated methods.
Because of the radioactivity of the products of formula I, it is much easier to reveal the existence of the glucocorticoid receptors in the tissues of organs when mineralocorticoid receptors are also present, thanks to the use of the usual methods of liaison measurements taking advantage of radioactive products. In addition, what was not possible with a non-radioactive product, such, for example, as determining of the number of sites of fixation of the glucocorticoid receptors, becomes realizable by the use of the products of formula I.

In data set [5] the test system is plasmatic proteins. As to the kind of experiment: Specific fixation on plasmatic proteins. The following applies: animals or humans. It counts as binding.
The nature of data set [6]: Stability and metabolism under in vitro incubation conditions. The data set is classed as in vitro ADME. The following applies: for metabolism in vitro in certain tissues: working in vitro, incubation conditions. How it is done:
as §1

Where [7] appears, read: 0° C. and 15° C., 24 hours, thymus receptor incubation.

Regarding `CC#CC1(O)CCC2C3C=C(C)C4=CC(=O)C=CC4(C)C3C(O)CC21C` (stereo not drawn) [6-methyl-17α-(prop-1-ynyl)-Δ^1,4,6-androstatriene-11β,17β-diol-3-one], in data set [1], the “selectivity of fixation on glucocorticoid receptors” value is “fixes selectively on the glucocorticoid receptors”.

For the compound `[3H]C([3H])([3H])C1=CC2C(C(O)CC3(C)C2CCC3(O)C#CC)C2(C)C=CC(=O)C=C12` (stereo not drawn) [Product A, 6-methyl-^3 H3-17α-(prop-1-ynyl)-Δ^1,4,6-androstatriene-11β,17β-diol-3-one], the non-specific fixation entry in data set [2] (0° C. and 15° C., 24 hours) was “only shows a weak non-specific fixation”. The “constant of association (Ka)” value in data set [2] (0° C., rat thymus cytosol, adsorption by carbon-dextran) is ~10^9 M^-1. For the same compound, the “constant of association relative to dexamethazone” value in data set [2] (0° C., rat thymus cytosol, compared with dexamethazone) was “about twice as high as that of dexamethazone”. Further, in data set [2] (at 0° C. and 15° C.), the “stability of complexes with thymus glucocorticoid receptors” value is “at least 24 hours”. The “replacement of non-radioactive corticosterone and cortisol fixed on glucocorticoid receptors” value in data set [2] (incubation at 15° C. for 24 hours) is recorded as “totally replaces”. Also, the “shape of dissociation curve” value in data set [2] (thymus) and in data set [3] was “a curve with one slope” throughout. In data set [2] (towards the glucocorticoid receptors), the “speed of association (K+1)” value was ~10^6 M^-1 mn^-1. Moreover, the “selective reactivity in respect of the glucocorticoid receptors” value in data set [4] is given as “the same selective reactivity”. Besides, in data set [5], the “specific fixation on plasmatic proteins” value is reported as “does not give rise to any specific fixation”. The loss of tritium result in data set [6] (setting [7]) was “does not show any loss of tritium”. For the same compound, the “metabolism under incubation conditions” value in data set [6] (setting [7]) is “is not subject to metabolism”.

For `C[C@]12C[C@H](O)[C@H]3[C@@H](CCC4=CC(=O)CC[C@@]43C)[C@@H]1CC[C@@H]2C(=O)CO` [corticosterone, reference compound], the “metabolism in vitro in certain tissues” value in data set [6] was “are metabolized in certain tissues”.

For `C[C@]12CCC(=O)C=C1CC[C@@H]1[C@@H]2[C@@H](O)C[C@@]2(C)[C@H]1CC[C@]2(O)C(=O)CO` [cortisol, reference compound], the “metabolism in vitro in certain tissues” value in data set [6] is recorded as “are metabolized in certain tissues”.

On to “^3 H-corticosterone [reference compound]”, for which, in data set [3], the “shape of dissociation curve” value is recorded as “a dissociation curve with two slopes”.
